Measured values as given in publication PMC9267128, “New 2-[(4-Amino-6-N-substituted-1,3,5-triazin-2-yl)methylthio]-N-(imidazolidin-2-ylidene)-4-chloro-5-methylbenzenesulfonamide Derivatives, Design, Synthesis and Anticancer Evaluation” (International Journal of Molecular Sciences, 2022).

How the values were obtained:
[1] = system: HaCaT (human keratinocyte cell line); experiment: MTT cell viability assay, non-cancerous HaCaT; type: cell-based; conditions: Homo sapiens, HaCaT, 72 h, 72 h of incubation, non-cancerous keratinocytes
Protocol: (§1) Compounds 20–162 were evaluated in vitro for their effects on the viability of three cancer cell lines: HCT-116 (colon cancer), MCF-7 (breast cancer) and HeLa (cervical cancer), as well as the non-cancerous keratinocyte cell line (HaCaT). […] Analysis was performed using an MTT assay after 72 h of incubation.
(§2) All chemicals, if not stated otherwise, were obtained from Sigma–Aldrich (St. Louis, MO, USA). The HCT-116 cell line was purchased from ATCC (ATCC-No: CCL-247), while the MCF-7, HeLa and HaCaT cell lines were purchased from Cell Lines Services (Eppelheim, Germany). Cells were cultured in Dulbecco’s modified Eagle’s medium (DMEM) supplemented with 10% fetal bovine serum, 2 mM glutamine, 100 units/mL penicillin and 100 µg/mL streptomycin. Cultures were maintained in a humidified atmosphere with 5% carbon dioxide at 37 °C in an incubator (Heraceus, HeraCell).
(§3) Cell viability was examined using the MTT [3-(4,5-dimethylthiazol-2-yl)-2,5-diphenyltetrazolium bromide] assay. Cells were seeded in 96-well plates at a density of 3 × 10^3 cells/well and treated for 72 h with the tested compounds in the concentration range of 1–100 µM. Then, MTT (0.5 mg/mL) was added to the medium and cells were further incubated for 2 h at 37 °C. In the next stage, cells were lysed with DMSO and the absorbance of the formazan solution was measured at 550 nm with a plate reader (1420 multilabel counter, Victor, Jügesheim, Germany). The experiment was performed in triplicate. Values are expressed as the mean ± SD of at least three independent experiments. Cisplatin was used as a positive control.

[2] = system: HeLa (cervical cancer); experiment: MTT cell viability assay, HeLa; type: cell-based, human; conditions: for IC50: Homo sapiens, HeLa, MTT assay, 72 h of incubation
Protocol: (§4) Analysis was performed using an MTT assay after 72 h of incubation.
as §2
as §3, with “experiments.” for “experiments. Cisplatin was used as a positive control.”

[3] = system: MCF-7 (breast cancer); experiment: MTT cell viability assay, MCF-7; type: cell-based, human; conditions: for IC50: Homo sapiens, MCF7, 72 h, MTT assay, 72 h of incubation
Protocol: as §1, §2, §3

[4] = system: HCT-116 (colon cancer); experiment: MTT cell viability assay, HCT-116; type: cell-based, human; conditions: for IC50: MTT assay, 72 h of incubation
Protocol: as §4, §2
as §3, with “experiments.” for “experiments. Cisplatin was used as a positive control.”

Compound | IC50 [2] | IC50 [3] | IC50 ([4]; Homo sapiens, HCT-116, 72 h) | IC50 [4] | IC50 [1] | Selectivity Index (SI) HeLa ([2]; IC50 value toward HaCaT cells/IC50 value toward HeLa) | Selectivity Index (SI) MCF-7 ([3]; IC50 value toward HaCaT cells/IC50 value toward MCF-7) | Selectivity Index (SI) HCT-116 ([4]; IC50 value toward HaCaT cells/IC50 value toward HCT-116)
Cc1cc(S(=O)(=O)N=C2NCCN2Cc2ccccc2)c(SCc2nc(N)nc(Nc3ccc(C(F)(F)F)cc3)n2)cc1Cl [Compound 51] | 15 ± 1 µM | 10 ± 0.5 µM | 19 ± 0.6 µM |  | 220 ± 12 µM |  |  | 
Cc1cc(S(=O)(=O)N=C2NCCN2Cc2ccc(C(F)(F)F)cc2)c(SCc2nc(N)nc(N3CCN(c4cccc(Cl)c4)CC3)n2)cc1Cl [Compound 137] | 12 ± 0.6 µM | 7 ± 0.4 µM | 6 ± 0.2 µM |  | 21 ± 1 µM |  |  | 
Cc1cc(S(=O)(=O)N=C2NCCN2Cc2ccc(C(F)(F)F)cc2)c(SCc2nc(N)nc(N3CCN(c4ccccc4F)CC3)n2)cc1Cl [Compound 133] | 14 ± 1 µM | 16 ± 0.5 µM | 8 ± 0.3 µM |  | 25 ± 1 µM |  |  | 
Cc1cc(S(=O)(=O)N=C2NCCN2Cc2ccc(C(F)(F)F)cc2)c(SCc2nc(N)nc(N3CCC(Cc4ccccc4)CC3)n2)cc1Cl [Compound 142] | 14 ± 0.2 µM | 6.5 ± 0.3 µM | 4.6 ± 0.1 µM |  | 29 ± 1 µM |  |  | 
Cc1cc(S(=O)(=O)N=C2NCCN2Cc2ccc(C(F)(F)F)cc2)c(SCc2nc(N)nc(N(C)c3ccccc3)n2)cc1Cl [Compound 128] | 15 ± 0.4 µM | 14 ± 0.5 µM | 10 ± 0.3 µM |  | 33 ± 1 µM |  |  | 
Cc1cc(S(=O)(=O)N=C2NCCN2Cc2ccccc2)c(SCc2nc(N)nc(N3CCN(c4ccccc4F)CC3)n2)cc1Cl [Compound 59] | 15 ± 1 µM | 18 ± 1 µM | 13 ± 0.3 µM |  | 30 ± 1 µM |  |  | 
Cc1cc(S(=O)(=O)N=C2NCCN2)c(SCc2nc(N)nc(N3CCN(c4ccc(F)cc4)CC3)n2)cc1Cl [Compound 32] | 14 ± 0.5 µM | 16 ± 0.5 µM | 14 ± 0.5 µM |  | 28 ± 1 µM |  |  | 
Cc1cc(S(=O)(=O)N=C2NCCN2)c(SCc2nc(N)nc(N3CCN(c4ccccc4F)CC3)n2)cc1Cl [Compound 33] | 25 ± 1 µM | 26 ± 1 µM | 19 ± 0.5 µM |  | 41 ± 2 µM |  |  | 
Cc1cc(S(=O)(=O)N=C2NCCN2Cc2ccc(C(F)(F)F)cc2)c(SCc2nc(N)nc(N3CCCc4ccccc43)n2)cc1Cl [Compound 121] | 13 ± 1 µM | 14 ± 1 µM | 6 ± 0.1 µM |  | 24 ± 1 µM |  |  | 
Cc1cc(S(=O)(=O)N=C2NCCN2Cc2ccc(F)cc2)c(SCc2nc(N)nc(N3CCOCC3)n2)cc1Cl [Compound 82] | 30 ± 1 µM | 12 ± 0.1 µM | 19 ± 0.8 µM |  | 54 ± 2 µM |  |  | 
Cc1cc(S(=O)(=O)N=C2NCCN2Cc2ccc(C(F)(F)F)cc2)c(SCc2nc(N)nc(Nc3ccc(C(F)(F)F)cc3)n2)cc1Cl [Compound 125] | 13 ± 0.5 µM | 7.5 ± 0.2 µM | 7.5 ± 0.2 µM |  | 25 ± 1 µM |  |  | 
Cc1cc(S(=O)(=O)N=C2NCCN2Cc2cccc3ccccc23)c(SCc2nc(N)nc(N3CCc4ccccc43)n2)cc1Cl [Compound 74] | 13 ± 0.5 µM | 12 ± 0.6 µM | 44 ± 2 µM |  | 81 ± 4 µM |  |  | 
Cc1cc(S(=O)(=O)N=C2NCCN2Cc2ccccc2)c(SCc2nc(N)nc(NCc3ccccc3)n2)cc1Cl [Compound 53] | 85 ± 2 µM | 11 ± 0.5 µM | 10 ± 0.5 µM |  | 81 ± 4 µM |  |  | 
COc1ccc(N2CCN(c3nc(N)nc(CSc4cc(Cl)c(C)cc4S(=O)(=O)N=C4NCCN4)n3)CC2)cc1 [Compound 40] | 23 ± 1 µM | 28 ± 2 µM | 21 ± 0.5 µM |  | 45 ± 3 µM |  |  | 
Cc1cc(S(=O)(=O)N=C2NCCN2Cc2ccc(Br)cc2)c(SCc2nc(N)nc(N3CCN(c4ccc(F)cc4)CC3)n2)cc1Cl [Compound 107] | 58 ± 2 µM | 7 ± 0.2 µM | 8.5 ± 0.3 µM |  | 76 ± 4 µM |  |  | 
Cc1cc(S(=O)(=O)N=C2NCCN2Cc2cc(C(F)(F)F)cc(C(F)(F)F)c2)c(SCc2nc(N)nc(N3CCN(c4ccccc4)CC3)n2)cc1Cl [Compound 150] | 11 ± 0.3 µM | 4.5 ± 0.2 µM | < 6 µM | 3.6 ± 0.2 µM | 23 ± 1 µM | 2.0 | 5.1 | 6.4
COc1ccc(Nc2nc(N)nc(CSc3cc(Cl)c(C)cc3S(=O)(=O)N=C3NCCN3Cc3ccc(C(F)(F)F)cc3)n2)cc1 [Compound 126] | 20 ± 1 µM | 21 ± 1 µM | 11 ± 0.6 µM |  | 37 ± 1 µM |  |  | 
Cc1cc(S(=O)(=O)N=C2NCCN2Cc2ccc(F)cc2)c(SCc2nc(N)nc(N3CCN(Cc4ccccc4)CC3)n2)cc1Cl [Compound 101] | 10 ± 0.6 µM | 11 ± 0.2 µM | 12 ± 0.5 µM |  | 21 ± 1 µM |  |  | 

Continued, in another order:

IC50 [2] | IC50 [3] | IC50 ([4]; Homo sapiens, HCT-116, 72 h) | IC50 [4] | Compound | IC50 [1] | Selectivity Index (SI) HeLa ([2]; IC50 value toward HaCaT cells/IC50 value toward HeLa) | Selectivity Index (SI) MCF-7 ([3]; IC50 value toward HaCaT cells/IC50 value toward MCF-7) | Selectivity Index (SI) HCT-116 ([4]; IC50 value toward HaCaT cells/IC50 value toward HCT-116)
74 ± 2 µM | 44 ± 1 µM | 39 ± 2 µM |  | Cc1cc(S(=O)(=O)N=C2NCCN2)c(SCc2nc(N)nc(NCc3ccccc3)n2)cc1Cl [Compound 27] | 75 ± 3 µM |  |  | 
130 ± 8 µM | 11 ± 0.5 µM | 19.5 ± 0.6 µM |  | Cc1cc(S(=O)(=O)N=C2NCCN2Cc2cccc3ccccc23)c(SCc2nc(N)nc(N3CCN(c4ccc(C(F)(F)F)cc4)CC3)n2)cc1Cl [Compound 78] | 280 ± 14 µM |  |  | 
14 ± 0.5 µM | 6.5 ± 0.2 µM | 6.5 ± 0.1 µM |  | Cc1cc(S(=O)(=O)N=C2NCCCN2Cc2ccc(C(F)(F)F)cc2)c(SCc2nc(N)nc(N3CCN(c4ccc(Cl)cc4)CC3)n2)cc1Cl [Compound 161] | 27 ± 1 µM |  |  | 
20 ± 1 µM | 29 ± 1 µM | 12 ± 0.4 µM |  | COc1ccccc1N1CCN(c2nc(N)nc(CSc3cc(Cl)c(C)cc3S(=O)(=O)N=C3NCCN3Cc3ccccc3)n2)CC1 [Compound 66] | 36 ± 2 µM |  |  | 
15 ± 0.6 µM | 17 ± 1 µM | 12 ± 0.2 µM |  | Cc1cc(S(=O)(=O)N=C2NCCN2Cc2ccc(F)cc2)c(SCc2nc(N)nc(N(C)c3ccc(Cl)cc3)n2)cc1Cl [Compound 90] | 30 ± 2 µM |  |  | 
8 ± 0.4 µM | 7 ± 0.5 µM | 7 ± 0.3 µM |  | Cc1cc(S(=O)(=O)N=C2NCCN2Cc2ccc(F)cc2)c(SCc2nc(N)nc(N3CCN(c4ccc(F)cc4)CC3)n2)cc1Cl [Compound 93] | 18 ± 1 µM |  |  | 
12 ± 0.1 µM | 13 ± 0.1 µM | 12 ± 0.1 µM |  | Cc1cc(S(=O)(=O)N=C2NCCN2)c(SCc2nc(N)nc(N3CCN(c4ccc(Cl)cc4)CC3)n2)cc1Cl [Compound 36] | 28 ± 1 µM |  |  | 
15 ± 1 µM | 6 ± 0.1 µM | 6 ± 0.1 µM |  | Cc1cc(S(=O)(=O)N=C2NCCN2Cc2cc(C(F)(F)F)cc(C(F)(F)F)c2)c(SCc2nc(N)nc(N3CCN(c4ccc(F)cc4)CC3)n2)cc1Cl [Compound 151] | 28 ± 1 µM |  |  | 
19 ± 1 µM | 28 ± 1 µM | 15 ± 0.5 µM |  | Cc1cc(S(=O)(=O)N=C2NCCN2)c(SCc2nc(N)nc(N3CCN(c4ccc(Cl)c(Cl)c4)CC3)n2)cc1Cl [Compound 38] | 35 ± 1 µM |  |  | 
25 ± 2 µM | 31 ± 1 µM | 17 ± 0.5 µM |  | COc1ccc(Nc2nc(N)nc(CSc3cc(Cl)c(C)cc3S(=O)(=O)N=C3NCCN3Cc3ccc(F)cc3)n2)cc1 [Compound 88] | 43 ± 2 µM |  |  | 
12 ± 0.5 µM | 9 ± 0.5 µM | 7 ± 0.1 µM |  | Cc1cc(S(=O)(=O)N=C2NCCN2Cc2ccccc2)c(SCc2nc(N)nc(N3CCN(c4cccc(Cl)c4)CC3)n2)cc1Cl [Compound 63] | 24 ± 1 µM |  |  | 
18 ± 0.5 µM | 17 ± 1 µM | 17 ± 1 µM |  | Cc1cc(S(=O)(=O)N=C2NCCN2Cc2ccc(F)cc2)c(SCc2nc(N)nc(N3CCN(c4ccc(F)c(Cl)c4)CC3)n2)cc1Cl [Compound 99] | 30 ± 1 µM |  |  | 
25 ± 1 µM | 13 ± 0.4 µM | 17 ± 1 µM |  | Cc1cc(S(=O)(=O)N=C2NCCN2Cc2ccc(Br)cc2)c(SCc2nc(N)nc(Nc3ccccc3)n2)cc1Cl [Compound 104] | 44 ± 2 µM |  |  | 
85 ± 5 µM | 23 ± 1 µM | 20 ± 0.6 µM |  | Cc1cc(S(=O)(=O)N=C2NCCN2Cc2ccc(Br)cc2)c(SCc2nc(N)nc(N3CCN(c4ccc(Cl)c(Cl)c4)CC3)n2)cc1Cl [Compound 110] | 123 ± 6 µM |  |  | 
16 ± 0.2 µM | 15 ± 0.2 µM | 13 ± 0.5 µM |  | Cc1cc(S(=O)(=O)N=C2NCCN2Cc2ccc(F)cc2)c(SCc2nc(N)nc(Nc3ccc(F)cc3)n2)cc1Cl [Compound 86] | 35 ± 2 µM |  |  | 
